Test results: the NIST ThermoML archive (doi:10.1021/acs.jced.7b00221)
± gives the expanded uncertainty stated by the source.

Assay: xn = mol fraction of the nth substance listed
Conditions: 100 kPa, Liquid, Cone and plate viscometry

With CCCCCCn1cc[n+](C)c1.N#Cc1ccc[n-]1 [1-hexyl-3-methylimidazolium 2-cyanopyrrolide] + CCCCCCCCCCCCCC[P+](CCCCCC)(CCCCCC)CCCCCC.O=S(=O)([N-]S(=O)(=O)C(F)(F)F)C(F)(F)F the viscosity (278.15 K, x1 = 0.1) was 1166 ± 160 mPa·s, the viscosity (278.15 K, x1 = 0.2) was 1261 ± 170 mPa·s and the viscosity (278.15 K, x1 = 0.3) was 1258 ± 170 mPa·s. It also gave a viscosity (278.15 K, x1 = 0.399) of 1299 ± 180 mPa·s, a viscosity (278.15 K, x1 = 0.499) of 1275 ± 170 mPa·s and a viscosity (278.15 K, x1 = 0.6) of 1379 ± 190 mPa·s. The viscosity (278.15 K, x1 = 0.7) was 1410 ± 190 mPa·s, the viscosity (278.15 K, x1 = 0.8) was 1397 ± 190 mPa·s and the viscosity (278.15 K, x1 = 0.9) was 1461 ± 200 mPa·s. It also gave a viscosity (278.15 K, x1 = 1) of 1540 ± 210 mPa·s, a viscosity (283.15 K, x1 = 0.1) of 806 ± 110 mPa·s and a viscosity (283.15 K, x1 = 0.2) of 867 ± 120 mPa·s. The viscosity (283.15 K, x1 = 0.3) was 851 ± 110 mPa·s, the viscosity (283.15 K, x1 = 0.399) was 876 ± 120 mPa·s and the viscosity (283.15 K, x1 = 0.499) was 846 ± 110 mPa·s. For the same compound, the viscosity (283.15 K, x1 = 0.6) was 905 ± 120 mPa·s, the viscosity (283.15 K, x1 = 0.7) was 910 ± 120 mPa·s and the viscosity (283.15 K, x1 = 0.8) was 877 ± 120 mPa·s. It also gave a viscosity (283.15 K, x1 = 0.9) of 893 ± 120 mPa·s, a viscosity (283.15 K, x1 = 1) of 902 ± 120 mPa·s and a viscosity (288.15 K, x1 = 0.1) of 568 ± 73 mPa·s. The viscosity (288.15 K, x1 = 0.2) was 605 ± 78 mPa·s, the viscosity (288.15 K, x1 = 0.3) was 589 ± 76 mPa·s and the viscosity (288.15 K, x1 = 0.399) was 602 ± 78 mPa·s. It also gave a viscosity (288.15 K, x1 = 0.499) of 575 ± 75 mPa·s, a viscosity (288.15 K, x1 = 0.6) of 612 ± 80 mPa·s and a viscosity (288.15 K, x1 = 0.7) of 603 ± 79 mPa·s. For the same compound, the viscosity (288.15 K, x1 = 0.8) was 571 ± 74 mPa·s, the viscosity (288.15 K, x1 = 0.9) was 566 ± 74 mPa·s and the viscosity (288.15 K, x1 = 1) was 553 ± 72 mPa·s. For the same compound, the viscosity (293.15 K, x1 = 0.1) was 410 ± 52 mPa·s, the viscosity (293.15 K, x1 = 0.2) was 435 ± 55 mPa·s and the viscosity (293.15 K, x1 = 0.3) was 419 ± 53 mPa·s. It also gave a viscosity (293.15 K, x1 = 0.399) of 426 ± 54 mPa·s, a viscosity (293.15 K, x1 = 0.499) of 404 ± 51 mPa·s and a viscosity (293.15 K, x1 = 0.6) of 423 ± 54 mPa·s. It also gave a viscosity (293.15 K, x1 = 0.7) of 416 ± 53 mPa·s, a viscosity (293.15 K, x1 = 0.8) of 387 ± 50 mPa·s and a viscosity (293.15 K, x1 = 0.9) of 374 ± 48 mPa·s. For the same compound, the viscosity (293.15 K, x1 = 1) was 355 ± 45 mPa·s, the viscosity (298.15 K, x1 = 0.1) was 303 ± 38 mPa·s and the viscosity (298.15 K, x1 = 0.2) was 320 ± 40 mPa·s. The viscosity (298.15 K, x1 = 0.3) was 307 ± 39 mPa·s, the viscosity (298.15 K, x1 = 0.399) was 310 ± 39 mPa·s and the viscosity (298.15 K, x1 = 0.499) was 292 ± 37 mPa·s. It also gave a viscosity (298.15 K, x1 = 0.6) of 304 ± 38 mPa·s, a viscosity (298.15 K, x1 = 0.7) of 295 ± 37 mPa·s and a viscosity (298.15 K, x1 = 0.8) of 271 ± 34 mPa·s. The viscosity (298.15 K, x1 = 0.9) was 257 ± 32 mPa·s, the viscosity (298.15 K, x1 = 1) was 239 ± 30 mPa·s and the viscosity (303.15 K, x1 = 0.1) was 229 ± 28 mPa·s. For the same compound, the viscosity (303.15 K, x1 = 0.2) was 241 ± 30 mPa·s, the viscosity (303.15 K, x1 = 0.3) was 230 ± 29 mPa·s and the viscosity (303.15 K, x1 = 0.399) was 231 ± 29 mPa·s. It also gave a viscosity (303.15 K, x1 = 0.499) of 216 ± 27 mPa·s, a viscosity (303.15 K, x1 = 0.6) of 224 ± 28 mPa·s and a viscosity (303.15 K, x1 = 0.7) of 216 ± 27 mPa·s. The viscosity (303.15 K, x1 = 0.8) was 196 ± 24 mPa·s, the viscosity (303.15 K, x1 = 0.9) was 183 ± 23 mPa·s and the viscosity (303.15 K, x1 = 1) was 167 ± 21 mPa·s. It also gave a viscosity (308.15 K, x1 = 0.1) of 176 ± 22 mPa·s, a viscosity (308.15 K, x1 = 0.2) of 185 ± 23 mPa·s and a viscosity (308.15 K, x1 = 0.3) of 176 ± 22 mPa·s. For the same compound, the viscosity (308.15 K, x1 = 0.399) was 177 ± 22 mPa·s, the viscosity (308.15 K, x1 = 0.499) was 164 ± 20 mPa·s and the viscosity (308.15 K, x1 = 0.6) was 169 ± 21 mPa·s. The viscosity (308.15 K, x1 = 0.7) was 162 ± 20 mPa·s, the viscosity (308.15 K, x1 = 0.8) was 146 ± 18 mPa·s and the viscosity (308.15 K, x1 = 0.9) was 135 ± 17 mPa·s. The viscosity (308.15 K, x1 = 1) was 122 ± 15 mPa·s, the viscosity (313.15 K, x1 = 0.1) was 138 ± 17 mPa·s and the viscosity (313.15 K, x1 = 0.2) was 145 ± 18 mPa·s. The viscosity (313.15 K, x1 = 0.3) was 137 ± 17 mPa·s, the viscosity (313.15 K, x1 = 0.399) was 137 ± 17 mPa·s and the viscosity (313.15 K, x1 = 0.499) was 127 ± 16 mPa·s. For the same compound, the viscosity (313.15 K, x1 = 0.6) was 130 ± 16 mPa·s, the viscosity (313.15 K, x1 = 0.7) was 125 ± 15 mPa·s and the viscosity (313.15 K, x1 = 0.8) was 112 ± 14 mPa·s. It also gave a viscosity (313.15 K, x1 = 0.9) of 101 ± 12 mPa·s, a viscosity (313.15 K, x1 = 1) of 91 ± 11 mPa·s and a viscosity (318.15 K, x1 = 0.1) of 110 ± 13 mPa·s. It also gave a viscosity (318.15 K, x1 = 0.2) of 115 ± 14 mPa·s, a viscosity (318.15 K, x1 = 0.3) of 109 ± 13 mPa·s and a viscosity (318.15 K, x1 = 0.399) of 109 ± 13 mPa·s. The viscosity (318.15 K, x1 = 0.499) was 100 ± 12 mPa·s, the viscosity (318.15 K, x1 = 0.6) was 102 ± 12 mPa·s and the viscosity (318.15 K, x1 = 0.7) was 97 ± 12 mPa·s. The viscosity (318.15 K, x1 = 0.8) was 87 ± 11 mPa·s, the viscosity (318.15 K, x1 = 0.9) was 79 ± 10 mPa·s and the viscosity (318.15 K, x1 = 1) was 70 ± 9 mPa·s. The viscosity (323.15 K, x1 = 0.1) was 89 ± 11 mPa·s, the viscosity (323.15 K, x1 = 0.2) was 93 ± 11 mPa·s and the viscosity (323.15 K, x1 = 0.3) was 87 ± 11 mPa·s. For the same compound, the viscosity (323.15 K, x1 = 0.399) was 88 ± 11 mPa·s, the viscosity (323.15 K, x1 = 0.499) was 81 ± 10 mPa·s and the viscosity (323.15 K, x1 = 0.6) was 82 ± 10 mPa·s. It also gave a viscosity (323.15 K, x1 = 0.7) of 78 ± 10 mPa·s, a viscosity (323.15 K, x1 = 0.8) of 69 ± 8 mPa·s and a viscosity (323.15 K, x1 = 0.9) of 62 ± 8 mPa·s. The viscosity (323.15 K, x1 = 1) was 55 ± 7 mPa·s.
